Values quoted from earlier work in patent publication US7452901B2, “Anti-cancer phosphonate analogs” (Gilead Sciences, Inc., priority 2003, dated 2008).

Target: T1, purine nucleotide phosphorylase (Homo sapiens, UniProt P00491)
T1 sequence (P00491 1-289): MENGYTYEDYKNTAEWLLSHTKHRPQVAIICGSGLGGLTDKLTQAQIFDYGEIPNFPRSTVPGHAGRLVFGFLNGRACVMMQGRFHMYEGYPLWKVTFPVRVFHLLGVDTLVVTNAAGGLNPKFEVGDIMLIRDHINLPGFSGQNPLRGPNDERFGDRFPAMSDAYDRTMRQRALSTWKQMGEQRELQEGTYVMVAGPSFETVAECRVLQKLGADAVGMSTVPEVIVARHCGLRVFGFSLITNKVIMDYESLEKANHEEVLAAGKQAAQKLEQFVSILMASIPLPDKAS
Conditions: disclosed at the ACS meeting (2000)

IC50: 20 nM
Compound: Nc1nc2c([C@@H](CO)c3ccccc3F)c[nH]c2c(=O)[nH]1 [PNP-405]
